Results on 43 compounds are retold here after ChEMBL document CHEMBL1122402, “Antidiabetic activity of some 1-substituted 3,5-dimethylpyrazoles” (1983).

This experiment is filed under the species Mus musculus. Briefly: Hypoglycemic activity in alloxan-diabetic female albino mice expressed as percentage reduction of plasma glucose levels. Type of experiment: functional. Further details: concentration or dose not given beside the values.
`Cc1cc(C)n(C(=O)c2ccc(NC(=O)Nc3ccccc3)cc2)n1` had a Reduction of 6%. Compound `CCCCNC(=O)NS(=O)(=O)c1ccc(NC(=O)n2nc(C)c(Br)c2C)cc1` registered a Reduction of 2%. For the compound `Cc1cc(C)n(C(=O)c2ccncc2)n1`, the Reduction is <1%. `Cc1cc(C)n(C(=O)Nc2ccc(S(=O)(=O)NC(=O)NCc3ccccc3)cc2)n1` had a Reduction of 1%. As for `Cc1cc(C)n(C(=O)c2ccc(S(=O)(=O)NC(=O)Nc3ccccc3)cc2)n1`, the Reduction is 2%.

Regarding `Cc1cc(C)n(C(=O)c2cccnc2)n1`, the Reduction is given as <1%. With `CCNC(=O)NS(=O)(=O)c1ccc(NC(=O)n2nc(C)c(Br)c2C)cc1`, the Reduction is listed as <1%.

For the compound `CCCNC(=O)NS(=O)(=O)c1ccc(C(=O)n2nc(C)cc2C)cc1`, the Reduction is given as <1%. `CCCNC(=O)Nc1ccc(C(=O)n2nc(C)c(Br)c2C)cc1` displayed a Reduction of 5%. For the compound `Cc1nn(-c2ccc(S(=O)(=O)NC(=O)Nc3ccccc3)cc2)c(C)c1Br`, the Reduction is <1%. In the case of `CCCCNC(=O)NS(=O)(=O)c1ccc(NC(=O)n2nc(C)cc2C)cc1` it was 7.5%.

The compound `Cc1nn(C(=O)c2ccc(S(=O)(=O)NC(=O)Nc3ccccc3)cc2)c(C)c1Br` came in with a Reduction of 3%.

The compound `CCCCNC(=O)NNC(=O)Cn1nc(C)cc1C` displayed a Reduction of 2%.

On to `CCCCNC(=O)NS(=O)(=O)c1ccc(C(=O)n2nc(C)cc2C)cc1`, for which the Reduction is 2%. As for `CCNC(=O)NNC(=O)Cn1nc(C)cc1C`, the figure is 1%. As to `CCNC(=O)NS(=O)(=O)c1ccc(NC(=O)n2nc(C)cc2C)cc1`, the Reduction is reported as 4%. On to `Cc1cc(C)n(CC(=O)NNC(=O)NC2CCCCC2)n1`, for which the Reduction is on record as 2.5%. `Cc1cc(C)n(C(=O)Nc2ccc(S(=O)(=O)NC(=O)NC3CCCCC3)cc2)n1` gave a Reduction of 9%.

With `Cc1nn(C(=O)c2ccc(S(=O)(=O)NC(=O)NCc3ccccc3)cc2)c(C)c1Br`, the Reduction is recorded as 2%. `Cc1nn(-c2ccc(S(=O)(=O)NC(=O)NC3CCCCC3)cc2)c(C)c1Br`: the Reduction is reported as 2.5%. `Cc1nn(C(=O)c2ccc(S(=O)(=O)NC(=O)NC3CCCCC3)cc2)c(C)c1Br` showed a Reduction of 1%. In turn, `CCCCNC(=O)Nc1ccc(C(=O)n2nc(C)c(Br)c2C)cc1` displayed a Reduction of 6%. As for `CCCCNC(=O)NS(=O)(=O)c1ccc(-n2nc(C)c(Br)c2C)cc1`, the figure is 3%; as for `CCCNC(=O)Nc1ccc(C(=O)n2nc(C)cc2C)cc1`, 8%; as for `CCNC(=O)NS(=O)(=O)c1ccc(C(=O)n2nc(C)cc2C)cc1`, <1%. Compound `CCNC(=O)NS(=O)(=O)c1ccc(C(=O)n2nc(C)c(Br)c2C)cc1` displayed a Reduction of 1%. Take `Cc1nn(C(=O)c2ccc(NC(=O)NC3CCCCC3)cc2)c(C)c1Br`: the Reduction is listed as 2.5%.

For `CCCNC(=O)NS(=O)(=O)c1ccc(NC(=O)n2nc(C)c(Br)c2C)cc1`, the Reduction came out at 1%. Turning to `CCNC(=O)NS(=O)(=O)c1ccc(-n2nc(C)c(Br)c2C)cc1`, the Reduction was <1%.

`Cc1nn(C(=O)Nc2ccc(S(=O)(=O)NC(=O)NC3CCCCC3)cc2)c(C)c1Br` displayed a Reduction of 4%. In turn, `Cc1cc(C)n(C(=O)n2nc(C)cc2C)n1` came in with a Reduction of 2.5%. Compound `CCCCNC(=O)Nc1ccc(C(=O)n2nc(C)cc2C)cc1` displayed a Reduction of 15%. As to `Cc1cc(C)n(C(=O)c2ccc(S(=O)(=O)NC(=O)NC3CCCCC3)cc2)n1`, the Reduction is reported as <1%.

With `Cc1nn(C(=O)c2ccc(NC(=O)Nc3ccccc3)cc2)c(C)c1Br`, the Reduction is <1%.

Take `Cc1cc(C)n(C(=O)Nc2ccc(S(=O)(=O)NC(=O)Nc3ccccc3)cc2)n1`: the Reduction is listed as 2%. As for `CCCNC(=O)NS(=O)(=O)c1ccc(NC(=O)n2nc(C)cc2C)cc1`, the Reduction worked out at 6%.

Compound `Cc1cc(C)n(C(=O)c2ccc(NC(=O)NC3CCCCC3)cc2)n1` showed a Reduction of 20%. On to `CCCNC(=O)NS(=O)(=O)c1ccc(-n2nc(C)c(Br)c2C)cc1`, for which the Reduction is reported as 2%.

On to `Cc1cc(C)n(C(=O)c2ccccc2O)n1`, for which the Reduction is <1%. `Cc1cc(C)n(CC(=O)n2nc(C)cc2C)n1` returned a Reduction of 2.5%.

On to `Cc1cc(C)n(C(=O)c2ccc(S(=O)(=O)NC(=O)NCc3ccccc3)cc2)n1`, for which the Reduction is <1%. `CCCNC(=O)NNC(=O)Cn1nc(C)cc1C` came in with a Reduction of 1%. On to `Cc1cc(C)n(CC(=O)NNC(=O)NCc2ccccc2)n1`, for which the Reduction was <1%.
